Results published in patent publication US6642215B2 (Leo Pharma A/S, priority 2001, dated 2003).

Experiments:
PC-3 cells = assay: DNA synthesis (tritiated thymidine incorporation) in PC-3 cells; format: cell-based; conditions: Homo sapiens, 144 h incubation, mean ± SD of two to four experiments
Procedure: (§1) DNA synthesis: NYH SCLC, HT-1080, Colo-320, PC-3 and H460 cells (7.5×10^3 cells/ml) were seeded in tissue culture vessels and the test compound were added 2 h after plating. Following an incubation for 144 h tritiated thymidine (5 CI/mmol, Amersham Pharmacia Biotech) was added to the culture at the concentration of 1 μCi/ml, and the cells were incubated for additional 4 h. The incorporated thymidine was measured with a β-counter. Each compound concentration was tested in triplicate.

HT-1080 cells = assay: DNA synthesis (tritiated thymidine incorporation) in HT-1080 cells; format: cell-based; conditions: Homo sapiens, 144 h incubation, mean ± SD of two to four experiments
Procedure: as §1

NF-κB [1] = assay: EMSA of NF-κB DNA binding activity in nuclear extracts of LPS-stimulated THP-1 cells; format: cell-based, human; conditions: 1 μM compound 24 h
Procedure: EMSA: For preparation of nuclear extracts, 10^7 cells were used at each experimental point. Following treatment of the THP-1 cells with either 1 μM of compound A for 24 h and stimulation with 1 μg/ml LPS at the indicated times, the cells were washed twice in PBS, and the cells were extracted for protein. The cells were resuspended in 500 μl buffer A (20 mM HEPES (pH 7.8), 0.1 mM EDTA, 10 mM KCL) with a protease inhibitor mixture (1 mM DTT, 0.5 mM Pefablock). Afterwards, the cells were incubated on ice for 15 min, then 30 μl 10% NP 40 was added and the cells were centrifuged at 5000×g. Each cell pellet was then resuspended in 50 μl buffer B (buffer A with 400 mM NaCl) and vortexed, followed by incubation for 15 min at 4° C. and centrifugation at 5000×g for 5 min at 4° C. The supernatant from each cell pellet was collected and the protein concentration quantified using the BCA-200 protein assay kit from Pierce (Rockford, Ill., USA). The nuclear extracts were stored at −80° C.
Double-stranded κB oligos (5′-AGTTGAGGGGACTTTCCCAGGC-3′ and the complement strand) were purchased from Promega. […] After electrophoresis at 4° C., the gel was dried, and the protein-DNA complexes were visualized and quantified on the STORM 860 Phospholmager using the ImageQuaNT software (available from Molecular Dynamics).

HT 1080 Xenografts = assay: HT 1080 xenografts in nude mice, tumour growth; format: in vivo, NMRI nu/nu mice; conditions: HT-1080 xenograft, 50 mg/kg, oral gavage
Procedure: All of the animal experiments were conducted according to the guidelines and ethical standards of the Danish Committee for Animal Experiments. Female NMRI nu/nu mice 6 weeks of age were purchased from M&B (Ry, Denmark). The mice were allowed an acclimatisation period of 1-3 weeks before start of the experiments. The nude mice were housed in Scantainers under semi-sterile conditions and all handling of mice was performed in a laminar flow bench.
HT 1080 Xenografts. NMRI nu/nu mice were injected with 2×10^6 cells in 0.2 ml media s.c. in each flank and tumour size was measured as described for the NYH model. Compound A was given for fourteen days by oral gavage from day 4 when the tumour size was 22-24 mm^2. Each treatment group consisted of 10 mice.
Statistical Methods In the animal models, tumour sizes were expressed by the mean of the trends in each treatment group. The trend is the linear increment or tumour size, where tumour size is the square root of the (mean) area of the tumour(s). Comparison with controls was expressed as T/C % and calculated as follows:
A=(overall mean tumour size at baseline+mean trend of treatment*intended days of treatment) […]
Overall mean tumour size at baseline=pooling all treatments this is the mean of all baseline values. For each mouse the baseline value is calculated as the square root of the (mean) area of the tumour(s). […]

NF-κB [2] = assay: NF-κB-dependent luciferase assay in Colo-320 cells, TNF-α stimulation; format: cell-based, human; conditions: Homo sapiens, compound 24 h before TNF-α 50 ng/ml 6 h, mean ± SD
Procedure: The NF-κB-luciferase reporter plasmid (pBIIX) and pRL-TK control vector described in Example 1 were used for the luciferase assay,
The Colo-320 cells were seeded with a density of 5×10^4 cells/cm^2 in 6-well plates (NUNC). The following day, the cells were co-transfected with construct DNA and pRL-TK using FuGene Transfection Reagent (Boehringer Mannheim). A mixture of 5 μl Fugene and 95 μl serum free medium (per well) was prepared and incubated for 5 min at room temperature. Then, the mixture was transferred to a mixture of construct DNA (2.5 μg per well) and pRL-TK vector (0.25 μg per well), gently mixed, incubated for 15 min at room temperature and added to the cells. The cells were treated at 37° C. with compound A (10^−12−10^−5 M) or DMSO for 24 h before stimulation with TNF-α (50 ng/ml) for 6 h.
The cell lysate was assayed for luciferase activity using the Dual luciferase kit as described by the manufacturer (Promega). All transfections were performed in triplicate. Firefly luciferase activity was corrected for differences in transfection efficiency by normalizing it to the measured Renilla luciferase activity.
NF-κB activity was measured by the luciferase assay described in Example 1.

Structure (SMILES): N#CNC(=Nc1ccncc1)NCCCCCCOc1ccc(Cl)cc1 [compound A, N-(6-(4-chlorophenoxy)hexyl)-N′-cyano-N″-(4-pyridyl)guanidine]
- IC50 (PC-3 cells): 5.6 ± 0.3 nM
- IC50 (HT-1080 cells): 5.6 ± 0.3 nM
- NF-κB DNA-binding activity suppressed compared to the control (NF-κB [1]; after 0.5 to 4 h of LPS-stimulation): 2 fold
- NF-κB DNA-binding activity suppressed compared to the control (NF-κB [1]; after 24 h of LPS-stimulation): 5 fold
- In vivo xenografts in nude mice T/C (%) (HT 1080 Xenografts): −77%
- IC50 (NF-κB [2]): 84 ± 33 nM
